Measurements published in ChEMBL document CHEMBL2218064, “Structure-activity relationship data for chemical series of antagonists of the P2X7 receptor (Supplementary Bioactivity Data for publication CHEMBL1157114)”.
pIC50: −log10 of the molar value.

The molecules below were run against T1, P2X purinoceptor 7 (Homo sapiens, UniProt Q99572) (assay: SUPPLEMENTARY: Inhibition of human P2X7 receptor assessed as inhibition of ethidium bromide accumulation. Same assay as CHEMBL1103860).
T1 sequence (Q99572 whole entry): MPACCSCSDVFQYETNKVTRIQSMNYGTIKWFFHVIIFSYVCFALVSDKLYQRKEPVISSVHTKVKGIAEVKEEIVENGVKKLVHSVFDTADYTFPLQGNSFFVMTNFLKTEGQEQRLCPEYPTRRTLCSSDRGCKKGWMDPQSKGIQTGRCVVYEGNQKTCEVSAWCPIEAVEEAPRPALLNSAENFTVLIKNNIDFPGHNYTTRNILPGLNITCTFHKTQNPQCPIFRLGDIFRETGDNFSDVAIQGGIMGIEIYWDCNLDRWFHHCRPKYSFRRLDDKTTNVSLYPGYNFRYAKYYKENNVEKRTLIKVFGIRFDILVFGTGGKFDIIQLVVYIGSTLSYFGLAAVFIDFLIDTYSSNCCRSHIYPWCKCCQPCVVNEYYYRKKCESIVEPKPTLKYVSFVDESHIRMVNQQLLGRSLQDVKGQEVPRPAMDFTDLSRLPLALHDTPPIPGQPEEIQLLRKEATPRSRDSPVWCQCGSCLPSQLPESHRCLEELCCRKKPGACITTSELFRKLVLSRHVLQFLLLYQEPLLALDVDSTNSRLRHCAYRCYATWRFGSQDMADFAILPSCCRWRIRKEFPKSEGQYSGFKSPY

Row | SMILES | pIC50
1 | CN1[C@H](C(=O)NCc2ccccc2Cl)CCS1(=O)=O | 6.10
2 | CCN1C(=O)C(C)(C)C[C@H]1C(=O)NCc1ccc(F)cc1Cl | 7.30
3 | O=C1C(=O)N(c2cccc3c2CCCC3)CCN1Cc1ccc(F)cc1Cl | 7.30
4 | O=C1C(=O)N(c2cccc(N3CCOCC3)c2)CCN1Cc1ccc(F)cc1Cl | 6.60
5 | O=C1C(=O)N(c2ccccc2N2CCOCC2)CCN1Cc1ccc(F)cc1Cl | 6.90
6 | CN1C(=O)N(c2ncccn2)CC1C(=O)NCc1cccc(C(F)(F)F)c1Cl (stereo not given) | 8.50
7 | O=C1C(=O)N(c2cccc3cccnc23)CCN1Cc1ccc(F)cc1Cl | 6.00
8 | Cc1ccccc1N1CCN(C(C)c2ccc(Cl)cc2Cl)C(=O)C1=O (stereo not given) | 7.50
9 | CN1C(=O)N(C2CCNCC2)CC1C(=O)NCc1cccc(C(F)(F)F)c1Cl (stereo not given) | 7.50
10 | Cn1ncc(I)c1CC(=O)NCc1ccc(Cl)cc1Cl | 7.40
11 | O=C1C(=O)N(c2ccc3c(c2)OCCO3)CCN1Cc1ccc(F)cc1Cl | 6.70
12 | Cc1ccccc1N1CCN(Cc2c(F)cccc2Cl)C(=O)C1=O | 6.00
13 | Cc1ccc(N2CCN(Cc3ccc(F)cc3Cl)C(=O)C2=O)c(C)c1 | 7.10
14 | Cc1ccc(C)c(N2CCN(Cc3ccc(F)cc3Cl)C(=O)C2=O)c1 | 8.10
15 | Cc1ccc(N2CCN(Cc3ccc(F)cc3Cl)C(=O)C2=O)cc1C | 6.30
16 | Cc1cc(C)cc(N2CCN(Cc3ccc(F)cc3Cl)C(=O)C2=O)c1 | 6.00
17 | CN1C(=O)N(c2ccccn2)CC1C(=O)NCc1cccc(C(F)(F)F)c1Cl (stereo not given) | 8.10
18 | CN1C(=O)N(c2cccnc2)CC1C(=O)NCc1cccc(C(F)(F)F)c1Cl (stereo not given) | 7.90
19 | Cc1ccccc1N1CCN(Cc2c(C)cc(Cl)cc2Cl)C(=O)C1=O | 8.30
20 | Cc1ccccc1CN1CCN(c2ccccc2C)C(=O)C1=O | 6.30
21 | Cc1ccccc1N1CCN(Cc2ccc(Cl)cc2)C(=O)C1=O | 6.40
22 | Cc1ccccc1N1CCN(Cc2cc(Cl)ccc2Cl)C(=O)C1=O | 6.00
23 | Cc1cc(F)ccc1CN1CCN(c2ccccc2C)C(=O)C1=O | 6.80
24 | Cc1c(F)cccc1N1CCN(Cc2ccc(F)cc2Cl)C(=O)C1=O | 7.00
25 | COc1c(F)cccc1N1CCN(Cc2ccc(F)cc2Cl)C(=O)C1=O | 7.10
26 | Cc1ccc(F)cc1N1CCN(Cc2ccc(F)cc2Cl)C(=O)C1=O | 7.40
27 | Cc1ccc(C(F)(F)F)cc1N1CCN(Cc2ccc(F)cc2Cl)C(=O)C1=O | 7.30

Row | SMILES | pIC50
28 | COc1ccc(C)c(N2CCN(Cc3ccc(F)cc3Cl)C(=O)C2=O)c1 | 8.00
29 | COc1ccc(F)cc1N1CCN(Cc2ccc(F)cc2Cl)C(=O)C1=O | 7.00
30 | Cc1ccccc1N1CCN(C(=O)c2cccc(Cl)c2Cl)CC1=O | 7.80
31 | N#Cc1c(F)cccc1N1CCN(Cc2ccc(F)cc2Cl)C(=O)C1=O | 6.20
32 | Cc1ccccc1CN1CCN(c2cccc(Cl)c2Cl)C(=O)C1=O | 6.60
33 | O=C1C(=O)N(c2cccc(Cl)c2Cl)CCN1Cc1ccccc1Cl | 6.70
34 | O=C1C(=O)N(c2cccc(Cl)c2Cl)CCN1Cc1cccc(Cl)c1 | 6.30
35 | O=C1C(=O)N(c2cccc(Cl)c2Cl)CCN1Cc1ccc(Cl)cc1 | 6.10
36 | C[C@@H]1CC(=O)N(C)[C@@H]1C(=O)NCc1cccc(C(F)(F)F)c1Cl | 7.80
37 | CN1C(=O)CC[C@@H]1C(=O)NCc1ccc(Cl)cc1Cl | 7.30
38 | CC(C)(C)CN1C(=O)CC[C@@H]1C(=O)NCc1cccc(C(F)(F)F)c1Cl | 6.80
39 | CC(C)N1[C@H](C(=O)NCc2ccc(Cl)cc2Cl)CCCS1(=O)=O | 6.30
40 | Cc1c(Cl)cccc1CNC(=O)[C@@H]1CCCS(=O)(=O)N1C(C)C | 6.20
41 | CN1[C@H](C(=O)NCc2ccc(F)cc2Cl)CCS1(=O)=O | 6.90
42 | O=C(NCc1cccc(C(F)(F)F)c1Cl)[C@H]1CCC(=O)N1Cc1ccccn1 | 7.20
43 | Cc1cccc(Cl)c1CNC(=O)[C@@H]1CCS(=O)(=O)N1C | 6.40
44 | CN1[C@H](C(=O)NCc2ccc(Cl)cc2Cl)CCS1(=O)=O | 7.50
45 | CN1C[C@@H](C(=O)NCc2cccc(C(F)(F)F)c2F)N(C)C1=O | 8.10
46 | CN1C[C@@H](C(=O)NCc2ccc(F)c(F)c2F)N(C)C1=O | 7.50
47 | CN1C[C@@H](C(=O)NCc2ccc(F)cc2C(F)(F)F)N(C)C1=O | 7.30
48 | CN1C[C@@H](C(=O)NCc2ccc(F)cc2Cl)N(C)C1=O | 8.00
49 | CCN1[C@H](C(=O)NCc2ccccc2Cl)CCS1(=O)=O | 6.30
50 | CC(C)N1[C@H](C(=O)NCc2ccc(F)cc2C(F)(F)F)CCS1(=O)=O | 6.20
51 | CN1[C@H](C(=O)NCc2ccc(F)cc2C(F)(F)F)CCS1(=O)=O | 6.40
52 | Cc1cnn(CC(F)(F)F)c1CC(=O)NCc1ccc(F)c(F)c1Cl | 7.30
53 | CN1C(=O)CC[C@H]1C(=O)NCc1ccc(F)c(C(F)(F)F)c1Cl | 8.50
54 | CCN1[C@H](C(=O)NCc2ccc(F)c(F)c2F)CCS1(=O)=O | 6.60

Row | SMILES | pIC50
55 | Cc1c(Cl)cccc1CNC(=O)[C@@H]1CCS(=O)(=O)N1C | 7.00
56 | Cc1c(Cl)cccc1CNC(=O)[C@@H]1CCS(=O)(=O)N1C(C)C | 6.60
57 | CCN1[C@H](C(=O)NCc2cccc(Cl)c2C)CCS1(=O)=O | 7.30
58 | CCN1[C@H](C(=O)NCc2ccc(F)cc2C(F)(F)F)CCS1(=O)=O | 6.90
59 | CC(C)N1[C@H](C(=O)NCc2ccc(F)cc2Cl)CCS1(=O)=O | 6.70
60 | CC(C)N1[C@H](C(=O)NCc2ccc(F)c(F)c2F)CCS1(=O)=O | 6.30
61 | CCN1[C@H](C(=O)NCc2ccc(Cl)cc2Cl)CCS1(=O)=O | 7.80
62 | CC(C)N1[C@H](C(=O)NCc2ccc(Cl)cc2Cl)CCS1(=O)=O | 7.30
63 | CC1CC(=O)N(C)[C@@H]1C(=O)NCc1cccc(C(F)(F)F)c1Cl (stereo not given in full) | 7.60
64 | CCN1C(=O)[C@@H](Cc2ccccc2)C[C@H]1C(=O)NCc1ccc(F)cc1Cl | 6.90
65 | CN1[C@H](C(=O)NCc2cccc(C(F)(F)F)c2Cl)CCS1(=O)=O | 7.80
66 | CN1[C@H](C(=O)NCc2ccc(F)c(F)c2Cl)CCS1(=O)=O | 7.10
67 | CCN1C(=O)[C@H](Cc2ccccc2)C[C@H]1C(=O)NCc1cccc(C(F)(F)F)c1Cl | 7.50
68 | O=C1C(=O)N(c2cccc(Cl)c2Cl)CCN1Cc1ccc(F)cc1Cl | 7.00
69 | Cc1cccc(N2C[C@@H](C(=O)NCc3ccc(F)cc3Cl)N(C)C2=O)n1 | 6.40
70 | Cc1ccc(N2C[C@@H](C(=O)NCc3cccc(C(F)(F)F)c3Cl)N(C)C2=O)cn1 | 8.00
71 | Cc1ccc(N2C[C@@H](C(=O)NCc3ccc(F)cc3Cl)N(C)C2=O)cn1 | 7.20
72 | O=C1C(=O)N(c2cccc(I)c2)CCN1Cc1ccc(F)cc1Cl | 6.40
73 | Cc1ncccc1N1C[C@@H](C(=O)NCc2ccc(F)cc2Cl)N(C)C1=O | 7.30
74 | CN1C(=O)NC[C@H]1C(=O)NCc1ccc(F)cc1Cl | 7.40
75 | CCN1[C@H](C(=O)NCc2ccc(F)c(F)c2Cl)CCS1(=O)=O | 7.10
76 | CCN1[C@H](C(=O)NCc2cccc(C(F)(F)F)c2Cl)CCS1(=O)=O | 8.00
77 | CN1C(=O)CC[C@H]1C(=O)NCc1cccc(C(F)(F)F)c1C#N | 8.20
78 | Cn1nccc1CC(=O)NCc1cccc(C(F)(F)F)c1Cl | 7.60
79 | CCN1C(=O)C(C)(C)C[C@H]1C(=O)NCc1cccc(C(F)(F)F)c1Cl | 8.30
80 | CCN1C(=O)C(C)(C)C[C@H]1C(=O)NCc1ccc(F)c(F)c1Cl | 7.40
81 | CN1C(=O)N(Cc2ccccn2)CC1C(=O)NCc1ccc(F)c(F)c1Cl (stereo not given) | 7.10

Row | SMILES | pIC50
82 | O=C1C(=O)N(c2ccccc2)CCN1Cc1ccc(F)cc1Cl | 6.40
83 | Cc1ccccc1N1CCN(Cc2ccc(Cl)cc2Cl)C(=O)C1=O | 8.00
84 | O=C(c1ccc(F)cc1Cl)N1CCN(c2cccc3ccccc23)C(=O)C1 | 7.00
85 | O=C1C(=O)N(c2ccccc2F)CCN1Cc1ccc(F)cc1Cl | 6.90
86 | Cc1cccc(N2CCN(Cc3ccc(F)cc3Cl)C(=O)C2=O)c1C | 8.30
87 | COc1ccccc1N1CCN(Cc2ccc(F)cc2Cl)C(=O)C1=O | 7.30
88 | Cc1cccc(N2CCN(Cc3ccc(F)cc3Cl)C(=O)C2=O)c1 | 6.80
89 | COc1cccc(N2CCN(Cc3ccc(F)cc3Cl)C(=O)C2=O)c1 | 6.80
90 | O=C1C(=O)N(c2ccccc2Cl)CCN1Cc1ccc(F)cc1Cl | 7.70
91 | Cc1ccccc1N1CCN(Cc2ccc(F)cc2Cl)C(=O)C1=O | 7.30
92 | Cc1ccccc1N1CCN(Cc2ccccc2Cl)C(=O)C1=O | 6.90
93 | Cc1ccccc1N1CCN(Cc2ccccc2F)C(=O)C1=O | 6.00
94 | Cc1ccccc1N1CCN(Cc2ccc(F)c(F)c2F)C(=O)C1=O | 6.60
95 | Cn1nccc1CC(=O)NCc1ccc(F)cc1Cl | 6.60
96 | Cn1nccc1CC(=O)NCc1ccc(F)c(F)c1Cl | 6.80
97 | Cn1nccc1CC(=O)NCc1ccc(Cl)cc1Cl | 6.90
98 | Cn1ncc(Cl)c1CC(=O)NCc1ccc(F)c(F)c1Cl | 7.50
99 | Cn1ncc(Cl)c1CC(=O)NCc1ccc(Cl)cc1Cl | 7.90
100 | Cc1ccccc1N1CCN(Cc2cccc(Cl)c2Cl)C(=O)C1=O | 7.60
101 | Cn1ncc(F)c1CC(=O)NCc1ccc(F)cc1Cl | 6.90
102 | Cn1ncc(F)c1CC(=O)NCc1ccc(F)c(F)c1Cl | 7.00
103 | Cn1ncc(F)c1CC(=O)NCc1ccc(Cl)cc1Cl | 7.30
104 | Cc1ccccc1N1CCN(Cc2ccc(F)cc2C(F)(F)F)C(=O)C1=O | 6.90
105 | Cc1ccccc1N1CCN(Cc2cccc(C(F)(F)F)c2Cl)C(=O)C1=O | 7.40
